Assay results as given in PMC11311031, “Novel Thienopyrimidine-Hydrazinyl Compounds Induce DRP1-Mediated Non-Apoptotic Cell Death in Triple-Negative Breast Cancer Cells” (Cancers, 2024).
“Also recorded” adds a separate entry of the source. Values belong to the compound of their own block, whether it stands above or below them.

Assays:
Assay type in all cases: cell-based
[1] = tested on: mitochondrial membrane potential in BT-20 cells; assay: Mitochondrial membrane potential (TMRE dye); details: 200 μM, 4 h, p < 0.0001
Protocol: The mitochondrial membrane potential (MMP) was determined using fluorescence microscopy by staining cellular mitochondria with tetramethylrhodamine ethyl ester (TMRE) dye (Invitrogen, Waltham, MA, USA). […] As a positive control, cells were incubated with carbonyl cyanide 3-chlorophenylhydrazone (CCCP) (TargetMol, Boston, MA, USA), a compound that uncouples mitochondrial oxidative phosphorylation, at a concentration of 200 μM, for 4 h. After incubation with the test compounds, the media was carefully removed from each well and incubated for 20 min with 0.4 µM of TMRE in PBS. Finally, the dye was carefully removed and replaced with fresh PBS. The cells were then imaged to detect MMP using a Cytation 7 Cell Imaging Multi-Mode Reader.

[2] = tested on: caspase 3/7 activity in BT-20 cells; assay: Caspase-Glo 3/7 activity assay
Protocol: Caspase-Glo® 3/7 Assay (Promega, Madison, WI, USA) was used to study the caspase 3/7 activity in BT-20 cells incubated with lead compounds. Briefly, 3000 BT-20 TNBC cells/well were plated in an opaque 96-well plate. […] Next, a mixture of Caspase-Glo® 3/7 buffer and lyophilized Caspase-Glo® 3/7 substrate was equilibrated to room temperature. The plates were removed from the incubator and allowed to adjust to room temperature for 30 min. Next, 100 μL of the Caspase-Glo® 3/7 reagent was added to each well, and the samples were placed in a shaker for 30 s. After 3 h of incubation at room temperature, luminescence, which indicates cleavage of […] caspases (caspase-3 and -7), was measured using a microplate reader (Agilent Technologies, Winooski, VT, USA).

BT-20 cells [3] = assay: Sulforhodamine B (SRB) assay; details: Homo sapiens, 72 h incubation, read-out: IC50 ± SD, BT-20, SRB Assay
Protocol: (§1) The cytotoxic efficacy of thienopyrimidine derivatives was determined as previously described, using 3 different assays: (1) (3-(4,5-dimethylthiazol-2-yl)-2,5-diphenyltetrazolium bromide) (MTT) (Avantor, Radnor, PA, USA), (2) CellTiter-Blue (CTB) (Promega, Madison, WI, USA), and (3) sulforhodamine B (SRB) (TargetMol, Boston, MA, USA) assay. For these assays, cells were harvested using 0.05% trypsin-ethylenediamine-tetraacetic acid (EDTA) (Corning, Corning, NY, USA), seeded at a density of 3000–5000 cells/well in a 96-well plate, and incubated at 37 °C overnight. The next day, the cells were incubated with different concentrations of the test compounds (0.1, 0.3, 1, 3, 10, 30, or 100 μM) and incubated for 72 h. […] In contrast, vehicle control (cells incubated in drug-free medium) contained less than 0.1% of DMSO.
For the SRB assay, the cells were fixed with 50% (w/v) tri-chloroacetic acid (TCA) (Avantor, Radnor, PA, USA) and incubated at 4 °C for 1 h. The cells were washed 4 times with deionized, distilled water, and air-dried at room temperature. The next day, the cells were stained with 0.04% (w/v) SRB solution for 1 h at room temperature and washed 4 times with 1% (v/v) acetic acid (Avantor, Radnor, PA, USA). After airdrying the plates overnight, 10 mM Tris base solution (pH 10.5) was added to each well and pipetted thoroughly to dissolve the dye, and absorbance was read at 510 nm.

BT-20 cells [4] = assay: MTT cell cytotoxicity assay; details: Homo sapiens, 72 h incubation, read-out: IC50 ± SD, BT-20, MTT Assay
Protocol: as §1
For the MTT assay, 4 mg/mL MTT was added to the cells and incubated for 3 h to allow for the conversion of MTT (yellow) to formazan crystals (dark blue). Following incubation, the media was aspirated and DMSO was added to solubilize the formazan crystals. The Cytation 7 Cell Imaging Multi-Mode Reader (Agilent Technologies, Winooski, VT, USA) was used to measure the absorbance at 570 nm.

BT-20 cells [5] = assay: CellTiter-Blue (CTB) assay; details: Homo sapiens, 72 h incubation, read-out: IC50 ± SD, BT-20, CTB Assay
Protocol: as §1
For the CTB assay, the CTB reagent was added to cells and incubated for 3 h to allow the reduction of resazurin (emits a blue color and low fluorescence) by metabolically active cells to resorufin (emits a pink color and high fluorescence). Finally, the plates were shaken for 10 s in a plate shaker, and fluorescence was measured at 560/590 nm.

ROS in BT-20 cells = assay: Intracellular ROS (H2DCFDA dye); details: 2 μM, 2 h, p < 0.0001
Text: It has been reported that ROS can cause the death of cancer cells by inducing apoptosis. Indeed, high levels of ROS activate the p53 enzyme system, which promotes late-stage apoptosis by upregulating the levels of pro-apoptotic proteins such as BAK and BAX and downregulating the levels of anti-apoptotic proteins such as BCL-2, BCL-xL, and MCL-1 [120]. In addition, ROS induce permeabilization of the outer mitochondrial membrane by opening the mitochondrial permeability transition pore (mPTP). This alters the electrochemical proton gradient across the mitochondria, causing the release of pro-apoptotic molecules into the cytoplasm, which are involved in apoptotic cell death. […] Cellular esterases hydrolyze the acetyl groups after the dye is taken up by cells, resulting in the formation of H2DCF [124]. Subsequently, intracellular ROS oxidize H2DCF to produce 2′,7′-dichlorofluorescein, which emits green fluorescence (excitation and emission wavelengths of 485 nm and 522 nm, respectively).

[6] = tested on: caspases (-3, -7, -8, -9), BAX, BAK, BCL-2, PARP in BT-20 cells; assay: Western blot of apoptotic and anti-apoptotic proteins; details: 1 μM
Protocol: Subsequently, the cells were washed with ice-cold PBS. The subcellular fraction was obtained by scraping the cells using a cell scrapper in ice-cold cytosolic lysis buffer. Next, the lysates were left on ice for 15 min. Nonyl phenoxypolyethoxylethanol (NP-40) (10% v/v) was introduced in the lysates and subjected to 2–3 min incubation. The lysates were then centrifuged for 10 min at 4 °C and 14,000 rpm. The resultant protein concentration in the lysates was determined using bicinchoninic acid (BCA) assay. Thirty micrograms of the proteins were loaded and separated on a 10% acrylamide SDS-PAGE gel, transferred to a PVDF membrane, and incubated overnight at 4 °C, with primary antibodies against cleaved caspase-3, caspase-3, cleaved caspase-7, caspase-7, cleaved caspase-9, caspase-9, cleaved caspase-8, caspase-8, BAX, BAK, BCL-2, cleaved PARP, PARP, p-DRP1, DRP1, p-MFF, MFF, FIS1, MFN1, MFN2, OPA1, and β-actin. […] ImageJ software (National Institutes of Health, Bethesda, MD, USA) was used to quantify the protein. Cellular proteins were quantified as a ratio to β-actin and were normalized to the vehicle control. The densitometry readings/intensity ratio of each band, andthe original whole western blot (uncropped blots) showing all the bands with the molecular weight markers, is shown in the Supplemental Materials.

[7] = tested on: cytochrome c in BT-20 cells; assay: Immunofluorescence of cytochrome c; details: 1 μM, p < 0.0001
Protocol: Immunofluorescence assays were conducted as previously described. In total, 100,000 BT-20 cells per well were plated on coverslips in a 6-well plate. […] After the incubation period, the media was carefully removed, and the cells were fixed using 1 mL of 4% paraformaldehyde for 15 min at room temperature. The cells were rinsed three times with PBS for 5 min. Five hundred microliters of 0.2% Trition-X100 was added to each well for 10 min to permeabilize the cells. The cells were washed three times with PBS for 5 min each. The cells were then blocked with 3% bovine serum albumin (BSA) in PBS, containing 0.1% Tween, for 2 h at room temperature before incubation with either cytochrome c (1:250), DRP1 (1:50), or phosphorylated-DRP1(1:450) monoclonal antibodies (Cell Signaling Technology, Danvers, MA, USA) overnight at 4 °C. The cells were incubated with either anti-mouse Alexa Fluor™ 594 (Invitrogen, Waltham, MA, USA) or anti-rabbit Alexa Fluor™ 488 at room temperature for 1 h. Nuclei were finally stained with Hoechst 33342 (ImmunoChemistry Technologies, Davis, CA, USA) for 10 min. Images were captured using a Cytation 7 Cell Imaging Multi-Mode Reader.

BT-20 cells [8] = assay: Nuclear staining with Hoechst 33342; details: 1 μM, 24 h
Protocol: Briefly, 100,000 cells/well of BT-20 cells were plated in a 6-well plate containing clear sterile coverslips. […] Next, the cells were stained with 0.5% v/v of the Hoechst 33342 dye for 15 min. 4% paraformaldehyde at a concentration of 4%, was used to fix cells at room temperature for another 15 min. After 1 wash with PBS, the cells were mounted on a clear slide, using Fluoromount-G (SouthernBiotech, Birmingham, AL, USA). The slides were visualized to detect nuclear fragmentation using the Cytation 7 Cell Imaging Multi-Mode Reader (Agilent Technologies, Winooski, VT, USA), which provided data related to nuclear fragmentation.

[9] = tested on: mouse embryonic fibroblast (MEF) cells; assay: β-Galactosidase staining (senescence), positive control; details: 250 nM, 24 h
Protocol: BT-20 cells were plated at 4000/well into a 96-well plate and incubated overnight. […] Four thousand cells/well of senescent MEFs were also seeded. The plate was incubated for 24 h. Once 80–100% confluency was obtained, mouse embryonic fibroblast (MEF) cells were incubated with 250 nM of doxorubicin for 24 h to induce senescence (positive control), followed by a change in media. The cells were incubated for another week and the media was changed every 3–4 days.
The next day, the cells were washed with PBS and fixed with 3% formaldehyde for 5 min. The cells were washed with PBS twice, followed by an addition of β-galactosidase (Research Products International, Racine, WI, USA) stain. The cells were placed in a 37 °C incubator with no CO2 overnight and imaged to detect β-galactosidase staining the next day using the Color Brightfield channel on the Cytation 7 Imaging Multi-Mode Reader.

Compound: N#CC(C#N)=NNc1cccc(Cl)c1 [CCCP, carbonyl cyanide 3-chlorophenylhydrazone]
TMRE fluorescence compared to vehicle control (positive control) [1]: significantly lower

IC50 (BT-20 cells [3]): 50 nM
IC50 (BT-20 cells [5]): 70 ± 30 nM
Compound: CC(=O)O[C@H]1C(=O)[C@@]2(C)[C@H]([C@H](OC(=O)c3ccccc3)[C@]3(O)C[C@H](OC(=O)[C@H](O)[C@@H](NC(=O)c4ccccc4)c4ccccc4)C(C)=C1C3(C)C)[C@]1(OC(C)=O)CO[C@@H]1C[C@@H]2O [PTX, Paclitaxel]
level of bioluminescence (activation of caspase-3 and caspase-7) ([2]; 0.1 μM): significantly increased
caspase-3 and 7 activity (Caspase-Glo 3/7) ([2]; 1 µM, n = 2): induced; also recorded: increased
IC50 (BT-20 cells [4]): 50 nM
ROS levels compared to vehicle control (ROS in BT-20 cells): significantly elevated
Bcl-2 levels compared to vehicle control [6]: significant decrease
levels of cleaved caspase-3, -7, -8, -9 and total caspase-8 compared to vehicle control [6]: significantly upregulated
cytochrome c release compared to vehicle control [7]: significantly enhanced
level of nuclear fragmentation (positive control) (BT-20 cells [8]): significantly increased

Compound: COc1cccc2c1C(=O)c1c(O)c3c(c(O)c1C2=O)C[C@@](O)(C(=O)CO)C[C@@H]3O[C@H]1C[C@H](N)[C@H](O)[C@H](C)O1 [doxorubicin]
SA-β-gal staining of MEF cells (positive control) [9]: stained blue
